Assays:
[1] = test system: laser-induced CNV in monkeys; test: Laser-induced choroidal neovascularization in monkeys, fluorescein angiography lesion grading; format: in vivo, cynomolgus monkeys (Macaca fascicularis); settings: intravitreal, both eyes, days 1 and 15, 1.5 mg/eye (Lucentis 0.5 mg/eye)
Protocol: Study was performed in three phases. In phases Ia and Ib, the behavior of the suspension in aqueous (Ia) and oil (Ib) formulations, and multiple dosing regimens as well as any adverse effect due to multiple dosing at 3 mg/eye (Ia) or 1.5 (Ib) were investigated. In phase II test articles were administered twice during the study period on days 1 and 15. Eyes were examined with an indirect ophthalmoscope and fundus camera.
Adult male cynomolgus monkeys (Macaca fascicularis) age 2-7 years old were used to test the efficacy of BOL-303050-X, BOL-303054-X and BOL-303055-X. Lucentis® (ranibizumab) was used as historic control.
Both eyes of 46 monkeys were examined at baseline and then 42 animals were randomized into 5 groups. On Phase II Day 8 of Dosing, the animals were anesthetized with ketamine and dexmedetomidine and the macula of each eye of the animals in Groups 1 through […] underwent laser treatment by a retinal surgeon with a 532 nm diode green laser (OcuLight GL, IRIDEX Corp. Inc., Mountain View, Calif.) using a slit lamp delivery system and a Kaufman-Wallow (Ocular Instruments Inc, Bellevue, Wash.) plano fundus contact lens with Gonak (2.5%) as the coupling agent. Nine laser spot areas were symmetrically placed in the macula of each eye. The laser parameters included a 75 micron spot size and 0.1 second duration. The power setting used was assessed by the ability to produce a blister and a small hemorrhage. […] For areas not adjacent to the fovea, the initial power setting was 500 mW; if a second spot was placed, the power was set to 650 mW. For the area adjacent to the fovea the power settings were 400 mW (initial treatment) and 550 mW (second treatment). At the discretion of the retinal surgeon, power settings were adjusted based on observations at the time of laser. Power setting used for each spot was documented as well as number of burns per spot and whether hemorrhage occurred.
(§1) Once the phase Ib study was completed, and it was established that the drug suspension in oil would not interfere with either laser administration, evaluation of CNV or cause adverse effects, phase II was initiated. On days 1, and 15 both eyes of monkeys received 50 μL of Lucentis (0.5 mg/eye), vehicle (0 mg/eye), BOL-303050-X (1.5 mg/eye), BOL-303054-X (1.5 mg/eye) or BOL-303055-X (1.5 mg/eye) (Table 2). Intravitreous injection was performed for each by eye aiming towards mid-vitreous body. Dosing in the right eye was alternated for successive doses (as applicable) at approximately the 11 o'clock and 10 o'clock positions. Dosing in the left eye was alternated for successive doses (as applicable) from approximately the 1 o'clock and 2 o'clock positions.
Animals were anesthetized with ketamine and dexmedetomidine. A topical anesthetic (0.5% proparacaine) was instilled in each eye before dose administration. A wire speculum was used to retract the eyelids. The eyes were cleaned with a 2.5% povidone iodine solution and then rinsed with sterile saline. Each animal was dosed using 1 cc tuberculin syringes and 30 gauge needles.
FA was performed at baseline, on days 22, 29 and 37 (approximately 14, 21 and 28 days post-laser). Digital ocular photographs were taken in conjunction with FA. The FA procedure is well known by people skilled in the art of ophthalmology.
Evaluation of FA was done according to the following grading system for evidence of excessive permeability (fluorescein leakage) or any other abnormalities.
Grade IV lesions are considered to be clinically significant as these most closely resemble the active forms of classical CNV seen in various human retinal disorders, including age-related macular degeneration. Comparison of the incidence of Grade IV lesions between treatment groups was evaluated.
Grade IV lesions were analyzed using either Fisher's exact probability test (2-Tail) or Chi square test (χ2). […]

[2] = Clinical ophthalmic examination in monkeys (vitreal cell scores, anterior chamber inflammation); format: in vivo, cynomolgus monkeys (Macaca fascicularis); settings: cynomolgus monkey, in vivo
Protocol: as §1
Animals were examined at baseline, on days 1, 3, 7, 15, and 31 of Dosing Phase II and on the day of scheduled sacrifice (day 38). On days of dose administration the ophthalmic examination was done prior to dosing.

[3] = test system: human retinal endothelial cells (HREC); test: Testing 7: VEGF-induced HREC proliferation (MTS assay), integrin antagonists and Lucentis alone and in combination; format: cell-based; settings: Lucentis 1 ng/mL
Protocol: HREC were first cultured overnight in a 96-well plate coated with fibronectin. The next day medium containing different agents as shown in Tables 14 and 15 was pre-incubated for 1 hour before being added into appropriate wells. The cells were cultured at 37° C., 5% CO2, and 95% humidity for another 3 days. After that, cell proliferation was estimated by the MTS assay. In the first study we used VEGF 10 ng/mL (about EC80 in study PH08169), Lucentis® 1 ng/mL (about EC25 in study PH09038) and 5 doses of BOL-303055-X. Normal IgG (1 ng/ml) was also added to groups containing no Lucentis®. All groups contained the same amount of 0.1% DMSO. In the second study, all five compounds (BOL-303049-X, BOL-303050-X, BOL-303051-X, BOL-303054-X and BOL-303055-X) were tested at 1 nM with other conditions remaining the same.
A 96-well plate was coated with human fibronectin (10 μg/mL) for 5 hours at 37° C. HREC were washed with HBSS buffer once, tripsinized and re-suspended in 10% FBS CS-C medium at 18,000 cells/mL. Cells (200 μL) were added to the plate and cultured overnight at 37° C., 5% CO2, and 95% humidity. Next day, the cells were serum-starved for 2 hours.
For study I, VEGF at 10 ng/mL, Lucentis® at 1 ng/mL and BOL-303055-X at 0.1, 0.3, 1, 3 and 10 nM were prepared in 1% FBS CS medium as shown in Table 14. Normal IgG (1 ng/mL) were added to groups containing no Lucentis®. All medium solutions were incubated for 1 hour at 37° C. After carefully medium was aspirated, 200 μL of the medium containing different agents were then added into appropriate wells. The cells were cultured for another 3 days. For the study II as shown in the Table 15, five compounds were tested at 1 nM with other conditions remaining the same as study I.
At the end of incubation, the medium was carefully aspirated from cells and 120 μl of MTS working solution was added into all wells including blank wells (without cells). The plates were incubated at 37° C., 5% CO2, and 95% humidity for 1 hour and then read by a plate reader at 490 nm wavelength.
Median optical density (OD) was generated from different groups. Data were expressed as mean±SEM of the OD values. Statistical analysis was performed using three-way ANOVA after Box-Cox transformations, and p<0.05 was considered statistically significant. To evaluate whether the effects of the combinations were either synergistic or additive, net inhibitions were calculated by subtracting the basal levels in the presence of VEGF from the individual treatments (Lucentis® and Integrin blockers) and the combinations. […] Data analysis was performed utilizing the statistical analysis software JMP (SAS Institute, Cary, N.C.).

[4] = intravitreal, wet AMD, cited from earlier work

## ranibizumab [Lucentis, reference compound]
[1]; Day 22
  Incidence of CNV lesions, Lesion Grade I (% Total): 97:126 (76.98) %
  Incidence of CNV lesions, Lesion Grade II (% Total): 20:126 (15.87) %
  Incidence of CNV lesions, Lesion Grade III (% Total): 9:126 (7.14) %
  Incidence of CNV lesions, Lesion Grade IV (% Total): 0:126 (0) %
[1]; Day 29
  Incidence of CNV lesions, Lesion Grade I (% Total): 96:126 (76.19) %
  Incidence of CNV lesions, Lesion Grade II (% Total): 22:126 (17.46) %
  Incidence of CNV lesions, Lesion Grade III (% Total): 8:126 (6.35) %
  Incidence of CNV lesions, Lesion Grade IV (% Total): 0:126 (0) %
[1]; Day 37
  Incidence of CNV lesions, Lesion Grade I (% Total): 118:126 (93.65) %
  Incidence of CNV lesions, Lesion Grade II (% Total): 8:126 (6.35) %
  Incidence of CNV lesions, Lesion Grade III (% Total): 3:126 (1.85) %
  Incidence of CNV lesions, Lesion Grade IV (% Total): 0:126 (0) %
[2]
  Vitreal cell score: number of eyes with grade 4: 0
[3]; VEGF 10 ng/mL
  Reduction of VEGF-induced HREC proliferation: 15-20%
[3]; basal and Lucentis-treatment conditions, BOL-303055-X 0.1-10 nM, other compounds 1 nM
  HREC proliferation without VEGF: did not alter HREC proliferation
[4]; at 1 year
  Patients who maintained visual acuity: 95%
[4]
  Patients with improvement in vision of at least 3 lines: 40%

From patent US20110189174A1, “COMPOSITIONS AND METHODS FOR TREATING, REDUCING, AMELIORATING, ALLEVIATING, OR INHIBITING PROGRESSION OF, PATHOGENIC OCULAR NEOVASCULARIZATION” (priority 2010, published 2011)
